# Measurements as given in PubChem BioAssay AID1996.
# Conditions: buffer; pH 7.4; 200.0 µM
row,SMILES,solubility kinetic [µg/mL]
1,O=C(O)CC1(CC(=O)NCc2ccc(C(F)(F)F)cc2)CCCCC1,> 53.6
2,O=C(NC(=S)Nc1ccc2oc(=O)ccc2c1)c1ccco1,2.8
3,O=S(=O)(Nc1ccccc1N1CCOCC1)c1c(F)cc(F)cc1Br,2.3
4,O=[N+]([O-])c1ccc(NC2CCCC2)c2ccncc12,3
5,NC1=NC(=O)/C(=C/c2cccc(F)c2)S1,2.7
6,NC(=O)C1(N2CCCCC2)CCN(Cc2nc(-c3cccs3)no2)CC1,> 56.3
7,CCCC(=O)N=c1sc2c(OC)ccc(OC)c2n1C,< 0.3
8,O=C(NNC(=O)c1ccncc1)Nc1cccc([N+](=O)[O-])c1,> 45.2
9,O=C(Nc1ncc(Cc2cccc(Cl)c2Cl)s1)C1CCCO1 (stereo not given),1.9
10,CCCc1ccc2oc(C(=O)N3CCC(COC)C3)c(C)c2c1 (stereo not given),24.7
11,NC(=O)C1CCN(C(=O)c2ccc(Oc3cc(Cl)cc(Cl)c3)o2)CC1,55.4
12,CC(C)CNC(=S)NC(=O)c1csc([N+](=O)[O-])c1,2.8
13,CON(C)S(=O)(=O)c1cccc(C(=O)N(CC(=O)Nc2ccccc2C(F)(F)F)Cc2ccco2)c1,50.2
14,Cc1ccc(C(=O)NCC(=O)NCCCc2ccccc2)s1,24.9
15,CC(C)(C)NC(=O)C1CC1(c1ccccc1)c1ccccc1 (stereo not given),2.8
16,Cc1cc(C(=O)OCC(=O)NC2CC2)c2ccccc2n1,> 42.6
17,CCNc1nc2c(c(=O)[nH]c(=O)n2C)n1CCCc1ccccc1,20.8
18,O=[N+]([O-])c1ccc(S(=O)(=O)c2ccccc2)nc1,> 39.6
19,c1ccc2c(c1)Cc1cc3ccccc3nc1-2,4.3
20,Cn1c(=O)c(=O)n(C)c2cc([N+](=O)[O-])c([N+](=O)[O-])cc21,> 42
21,CC(C(c1cccs1)c1c(N)n(C)c(=O)n(C)c1=O)[N+](=O)[O-] (stereo not given),> 48.7
22,O=C(COC(=O)CCc1ccccc1)NCc1ccc2c(c1)OCO2,> 51.2

row,SMILES,solubility kinetic [µg/mL]
1,Cc1ccccc1C(=O)NC(C(N)=O)P(=O)(OC(C)C)OC(C)C (stereo not given),> 53.5
2,O=C(COC(=O)c1cc(S(=O)(=O)N2CCOCC2)c(Cl)cc1Cl)NCc1ccco1,> 71.6
3,Cc1ccccc1N1CCN(CC(=O)Nc2nccs2)CC1,44.2
4,Cc1cc(=O)oc2cc(OCC(=O)NCC3CCC(C(=O)O)CC3)ccc12 (stereo not given),> 56
5,Cc1noc(NS(=O)(=O)c2ccc(N)cc2)c1C,> 40.1
6,O=C(CCc1ccccc1F)N1CCN(c2ccccc2)CC1,41.6
7,O=C(NCc1ccc(Cl)cc1)C1CCC(=O)N(C2CC2)C1 (stereo not given),> 46
8,C=CCN1C(=O)C(=O)N(Cc2nc3ccccc3s2)C1=O,> 45.2
9,O=S(=O)(NC1=NCCC1)c1ccc(F)cc1F,> 39
10,CCS(=O)(=O)N1CCC(C(=O)Nc2ccc(C(C)=O)cc2)CC1,> 50.8
11,COc1ccc2oc(C(=O)OCC(=O)Nc3ccc(C(=O)N(C)C)cc3)c(C)c2c1,58.7
12,O=C(CCC(=O)c1cccs1)NCc1cccnc1,> 41.2
13,Cc1ccc(OCC(=O)NCCNC(=O)c2cnccn2)cc1C,46.3
14,CCOC(=O)c1cccc(C(=O)Nc2nc3ccc(OC)cc3s2)n1,< 0.3
15,COc1ccc(N)cc1S(=O)(=O)Nc1ccccc1Cl,> 46.9
16,Clc1ccc(-c2cn3cc(Cl)ccc3n2)cc1,< 0.3
17,Cc1cccc(NC(=O)c2ccc([N+](=O)[O-])s2)n1,9.5
18,Cc1nc2cc(NC(=O)Nc3ccccc3Cl)ccc2n1C,7.4
19,O=C(Nc1ccc2c(c1)OCCO2)C(=O)NC1CC1,30.8
20,Cc1cc(C)c(S(=O)(=O)Cc2ccccc2)c(OC(C)C)n1,26
21,CN1CCN2c3ncccc3Cc3ccccc3[C@@H]2C1,30.2
22,O=C(Nc1ccc(Cl)cc1)c1cncs1,> 35.8

row,SMILES,solubility kinetic [µg/mL]
1,COc1cccc(C(=O)NCCNC(=O)c2ccc(C)nc2)c1,45.7
2,CC(C)(C)S(=O)(=O)c1cnc(N2CCOCC2)nc1N,32.8
3,O=C(O)c1ccc2c(c1)C(=O)N(c1cccc3ccccc13)C2=O,> 47.6
4,CCOC(=O)C1C(c2ccccc2)NC(=S)NC1(C)O (stereo not given),41.6
5,COc1cccc(CN2CC=C(c3ccc(F)cc3)CC2)c1,10.3
6,c1ccc(CC(NCc2ccco2)c2ccccc2)cc1 (stereo not given),13.6
7,CC1CCCC(C)N1C(=O)CSc1nc2ccccc2c(=O)[nH]1 (stereo not given),27.6
8,CCOc1ccc(Nc2ccc(N3C(=O)CCC3=O)cc2[N+](=O)[O-])cc1,2.3
9,CN(CCN1CCOCC1)Cc1nc(-c2cccs2)no1,44.5
10,CC(C)CCC(C)NC(=O)Cc1ccc(S(=O)(=O)N2CCOCC2)s1 (stereo not given),47
11,O=C(CSc1ccc2ccccc2n1)NC1CC1,38
12,Cc1ccc(CNC(=O)/C=C/C(=O)O)cc1,> 32.9
13,CC(C)(C)C1CCC(C(=O)Nc2nccs2)CC1 (stereo not given),0.3
14,O=C(NC1CCCCC1)c1cc(-c2ccc(Cl)cc2)on1,0.5
15,CC(C)Oc1ccc(C(=O)NCCNC(=O)c2ccco2)cc1,> 47.5
16,O=C1CCCC(=O)N1c1ccc(N2CCOCC2)c([N+](=O)[O-])c1,> 47.9
17,O=C(CCNS(=O)(=O)c1ccc(OC(F)(F)F)cc1)NC1CC1,> 52.8
18,NCCNc1ccc([N+](=O)[O-])c2cccnc12,28.7
19,Cc1ccc(Nc2c([N+](=O)[O-])ccc3nonc23)c(C)c1,< 0.2
20,Cc1ccc(CNC(=O)CCSCc2ccccc2F)cc1,11.8
21,CC(=O)Nc1ccc(C(=O)CN2C(=O)NC3(CCCCCC3)C2=O)c(F)c1,33.9
22,CCOC(=O)CNC(=S)SC,21.8

row,SMILES,solubility kinetic [µg/mL]
1,CCc1cccc(OCC(=O)Nc2c[nH]c(=O)[nH]c2=O)c1,0.9
2,CC(C(=O)Nc1ccccn1)c1ccccc1 (stereo not given),> 33.9
3,O=C(Nc1cccc(Cl)c1)NC1CCS(=O)(=O)C1 (stereo not given),36.4
4,CCOC(=O)c1c(/N=C/C2C(=O)NC(=O)NC2=O)sc2c1CCC2,5.4
5,Cc1ccccc1OC(C)C(=O)N1CCN(c2ccccn2)CC1 (stereo not given),> 48.8
6,Cc1ccccc1Nc1c(C)c(C)nc2ncnn12,> 38
7,OCC1(Cc2ccccc2)CCN(Cc2cccc(F)c2F)CC1,43
8,CC1CCCC(NC(=O)CN2C(=O)COc3ccccc32)C1C (stereo not given),6.4
9,CC1CN(C(=O)c2cc3cc(F)ccc3[nH]2)CC(C)O1 (stereo not given),32.2
10,CCN(CC)S(=O)(=O)c1ccc(=O)[nH]c1,> 34.5
11,CC(C)[C@H](NC(=O)c1ccc(Cl)c([N+](=O)[O-])c1)C(=O)O,> 45.1
12,Cl.O=C(OCCN1CCOCC1)c1cccc(F)c1,> 43.5
13,COCC(C)NC(=O)C1c2ccccc2Oc2ccccc21 (stereo not given),40.1
14,CC(C)(C)CC(C)(C)NC(=O)/C=C/C(=O)O,29.1
15,O=C(NC(=S)Nc1ccc(Cl)cc1Cl)C1CC1,0.8
16,CCCC(C)NC(=O)CSc1nnc2ccccn12 (stereo not given),> 41.8
17,CCCC(=O)Nc1ccc(C=C(C(C)=O)C(C)=O)cc1,> 41
18,O=C(COC(=O)C1CCC1)NCc1ccc(F)cc1,> 39.8
19,Cc1ccc(C)c(NC(=O)CSc2nnc(-c3ccncc3)o2)c1,> 51.1
